Measurements: patent US20090131468A1, “Bis-(Sulfonylamino) Derivatives in Therapy 065” (AstraZeneca AB, priority 2007, published 2009)

Target: T1, human mPGES-1 (Homo sapiens, UniProt O14684)
T1 sequence (O14684 1-152): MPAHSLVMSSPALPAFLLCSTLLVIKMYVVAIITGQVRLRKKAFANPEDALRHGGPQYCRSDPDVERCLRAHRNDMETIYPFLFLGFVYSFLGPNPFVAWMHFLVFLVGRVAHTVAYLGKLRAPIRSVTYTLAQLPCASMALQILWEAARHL
Assay: Microsomal prostaglandin E synthase biochemical assay
Conditions: microsome preparation containing human mPGES-1; PGH2 10.8 μM, GSH 2.5 mM, pH 6.8; PGE2 quantified by HTRF; average of at least n=2
Description: Compounds were tested as inhibitors of microsomal prostaglandin E synthase activity in microsomal prostaglandin E synthase assays and whole cell assays. These assays measure prostaglandin E2 (PGE2) synthesis which is taken as a measure of prostaglandin E synthase activity. Microsomal prostaglandin E synthase biochemical assays used microsomal prostaglandin E synthase-1 in microsomal preparations. The source of the microsomes can be for example interleukin-1β-stimulated human A549 cells (which express human mPGES-1) or Sf9 cells transfected with plasmids encoding human mPGES-1 cDNA.
A solution of test compound was added to a diluted microsome preparation containing human mPGES-1 and pre-incubated for 15 minutes in potassium phosphate buffer pH 6.8 with cofactor glutathione (GSH). Corresponding solutions without test compound were used as positive controls, and corresponding solutions without test compound and without microsomes were used as negative controls. The enzymatic reaction was then started by addition of the substrate PGH2 in an organic solution (dry acetonitrile).
The reaction was stopped after one minute by adding an acidic solution (pH 1.9) of ferric chloride and citrate (final concentrations 7 mM and 47 mM respectively), by which the PGH2 was sequestered (the PGH2 is reduced to mainly 12-hydroxy heptadecatrineoic acid (12-HHT) which is not detected by the subsequent PGE2 detection step). The resulting solution was then pH neutralized by addition of potassium phosphate buffer, prior to diluting an aliquot of the resulting solution in a weak potassium phosphate buffer (50 mM, pH 6.8) containing 0.2% BSA (w/v). […] The PGE2 formed was quantified by use of a commercial HTRF based kit (catalogue #62PG2PEC or #62P2APEC from Cisbio International). 100% activity was defined as the PGE2 production in positive controls subtracted by the PGE2 production in the negative controls. IC50 values were then determined using standard procedures.

Point of comparison: COCCOCCOc1cc(C(=O)NS(=O)(=O)c2ccccc2S(N)(=O)=O)ccc1-c1cc2ccccc2o1 [Example 119, 4-(Benzofuran-2-yl)-3-(2-(2-methoxyethoxy)ethoxy)-N-(2-sulfamoylphenylsulfonyl)-benzamide], IC50 17 nM. Against it:
- NS(=O)(=O)c1ccccc1S(=O)(=O)NC(=O)c1ccc(C#Cc2ccccn2)cc1 [Example 71, 4-(Pyridin-2-ylethynyl)-N-(2-sulfamoylphenylsulfonyl)benzamide] — 59-fold higher, 1000 nM
- CC(C)(C)C#Cc1ccc(C(=O)NS(=O)(=O)c2ccccc2S(N)(=O)=O)cn1 [Example 116, 6-(3,3-Dimethylbut-1-ynyl)-N-(2-sulfamoylphenylsulfonyl)nicotinamide] — 21-fold higher, 350 nM
- NS(=O)(=O)c1ccccc1S(=O)(=O)NC(=O)C1(c2ccccc2)CCCCC1 [Example 18, 1-Phenyl-N-(2-sulfamoylphenyl)sulfonyl-cyclohexane-1-carboxamide] — 5.9-fold higher, 100 nM
- NS(=O)(=O)c1ccccc1S(=O)(=O)NC(=O)c1sc2cc(Cl)ccc2c1Cl [Example 39, 3,6-Dichloro-N-(2-sulfamoylphenyl)sulfonyl-benzothiophene-2-carboxamide] — 4.8-fold higher, 82 nM
- CC(C)(C)C#Cc1ccc(C(=O)NS(=O)(=O)c2ccccc2S(N)(=O)=O)cc1C#N [Example 79, 3-Cyano-4-(3,3-dimethylbut-1-ynyl)-N-(2-sulfamoylphenylsulfonyl)benzamide] — 4.1-fold higher, 70 nM
- NS(=O)(=O)c1ccccc1S(=O)(=O)NC(=O)c1cnc2ccccc2c1 [Example 162, Benzene-1,2-disulfonic acid 1-amide 2[(quinoline-3-carbonyl)-amide]] — 650-fold higher, 11000 nM
- CC(C)(O)C#Cc1cccc(C(=O)NS(=O)(=O)c2ccccc2S(N)(=O)=O)c1 [Example 59, 3-(3-Hydroxy-3-methylbut-1-ynyl)-N-(2-sulfamoylphenylsulfonyl)benzamide] — 3.3-fold higher, 56 nM
- CC(C)Oc1cc(C(=O)NS(=O)(=O)c2ccccc2S(N)(=O)=O)ccc1-c1cc2ccccc2o1 [Example 127, 4-(Benzofuran-2-yl)-3-isopropoxy-N-(2-sulfamoylphenylsulfonyl)benzamide] — 1.8-fold lower, 9.5 nM
- NS(=O)(=O)c1ccccc1S(=O)(=O)NC(=O)c1ccc2[nH]c(-c3ccccc3)cc2c1 [Example 140] — 8.2-fold higher, 140 nM
- NS(=O)(=O)c1ccccc1S(=O)(=O)NC(=O)c1ccc(C#Cc2ccccc2)nc1 [Example 55, 6-(Phenylethynyl)-N-(2-sulfamoylphenylsulfonyl)nicotinamide] — 7.1-fold higher, 120 nM
- COc1cccc(-c2cc3cc(C(=O)NS(=O)(=O)c4ccccc4S(N)(=O)=O)ccc3o2)c1 [Example 74, 2-(3-Methoxyphenyl)-N-(2-sulfamoylphenylsulfonyl)benzofuran-5-carboxamide] — within 1.5-fold, 24 nM
- CC(C)(O)C#Cc1cccc(-c2ccccc2C(=O)NS(=O)(=O)c2ccccc2S(N)(=O)=O)c1 [Example 64, 3′-(3-Hydroxy-3-methylbut-1-ynyl)-N-(2-sulfamoylphenylsulfonyl)biphenyl-2-carboxamide] — 360-fold higher, 6200 nM
- COCCOCCOc1cc(C(=O)NS(=O)(=O)c2ccccc2S(N)(=O)=O)cnc1C#CC(C)(C)C [Example 134, 6-(3,3-Dimethylbut-1-ynyl)-5-(2-(2-methoxyethoxy)ethoxy)-N-(2-sulfamoylphenyl-sulfonyl)nicotinamide] — 11-fold higher, 180 nM
- CC(C)(C)C#Cc1ccc(C(=O)NS(=O)(=O)c2ccccc2S(N)(=O)=O)nc1 [Example 89, 5-(3,3-Dimethylbut-1-ynyl)-N-(2-sulfamoylphenylsulfonyl)picolinamide] — 71-fold higher, 1200 nM
- CC(C)(O)C#Cc1cc(C(=O)NS(=O)(=O)c2ccccc2S(N)(=O)=O)ccc1OCc1ccccc1 [Example 156, 4-(Benzyloxy)-3-(3-hydroxy-3-methylbut-1-ynyl)-N-(2-sulfamoylphenylsulfonyl)-benzamide] — 6.5-fold higher, 110 nM
- NS(=O)(=O)c1ccccc1S(=O)(=O)NC(=O)c1ccc(-c2ccccn2)s1 [Example 34, 5-Pyridin-2-yl-N-(2-sulfamoylphenyl)sulfonyl-thiophene-2-carboxamide] — 94-fold higher, 1600 nM
- NS(=O)(=O)c1ccccc1S(=O)(=O)NC(=O)c1c(F)cc(-c2cc3ccccc3o2)cc1F [Example 152, 4-(Benzofuran-2-yl)-2,6-difluoro-N-(2-sulfamoylphenylsulfonyl)benzamide] — 34-fold higher, 570 nM
- CC(C)(C)C#Cc1cccc(C(=O)NS(=O)(=O)c2ccccc2S(N)(=O)=O)c1 [Example 60, 3-(3,3-Dimethylbut-1-ynyl)-N-(2-sulfamoylphenylsulfonyl)benzamide] — 16-fold higher, 270 nM
- CC(C)Oc1cc(C(=O)NS(=O)(=O)c2ccccc2S(N)(=O)=O)ccc1C#CC1(O)CCCCCC1 [Example 133, 4-((1-Hydroxycycloheptyl)ethynyl)-3-isopropoxy-N-(2-sulfamoylphenylsulfonyl)-benzamide] — 33-fold higher, 560 nM
- COc1cc(C(=O)NS(=O)(=O)c2ccccc2S(N)(=O)=O)ccc1C#CC(C)(C)C [Example 110, 4-(3,3-Dimethylbut-1-ynyl)-3-methoxy-N-(2-sulfamoylphenylsulfonyl)benzamide] — 16-fold higher, 270 nM
- C=C(C)C#Cc1ccc(C(=O)NS(=O)(=O)c2ccccc2S(N)(=O)=O)cc1 [Example 54, 4-(3-Methylbut-3-en-1-ynyl)-N-(2-sulfamoylphenylsulfonyl)benzamide] — 3.6-fold higher, 62 nM
- NS(=O)(=O)c1ccccc1S(=O)(=O)NC(=O)c1ccc(C#Cc2ccccn2)nc1 [Example 94, 6-(Pyridin-2-ylethynyl)-N-(2-sulfamoylphenylsulfonyl)nicotinamide] — 760-fold higher, 13000 nM
- NS(=O)(=O)c1ccccc1S(=O)(=O)NC(=O)c1ccc(-c2nc3cccnc3o2)cc1 [Example 7, 4-(7Oxa-5,9-diazabicyclo [4.3.0]nona-2,4,8,10-tetraen-8-yl)-N-(2-sulfamoylphenyl)-sulfonyl-benzamide] — 59-fold higher, 1000 nM
- NS(=O)(=O)c1ccccc1S(=O)(=O)NC(=O)c1ccc(F)c(Br)c1 [Example 20, 3-Bromo-4-fluoro-N-(2-sulfamoylphenyl)sulfonyl-benzamide] — 35-fold higher, 590 nM
- COc1cc(C(=O)NS(=O)(=O)c2ccccc2S(N)(=O)=O)ccc1C#CC(C)(C)OC [Example 114, 3-Methoxy-4-(3-methoxy-3-methylbut-1-ynyl)-N-(2-sulfamoylphenylsulfonyl)-benzamide] — 94-fold higher, 1600 nM
- NS(=O)(=O)c1ccccc1S(=O)(=O)NC(=O)c1ccc(Br)cc1O [Example 49a, 4-Bromo-2-hydroxy-N-(2-sulfamoylphenylsulfonyl)benzamide] — 32-fold higher, 540 nM
- CCOC(=O)c1ccc(-c2ccc(C(=O)NS(=O)(=O)c3ccccc3S(N)(=O)=O)o2)cc1 [Example 41, Ethyl 4-[5-[(2-Sulfamoylphenyl)sulfonylcarbamoyl]-2-furyl]benzoate] — 320-fold higher, 5400 nM
- NS(=O)(=O)c1ccccc1S(=O)(=O)NC(=O)C1CC2CCC1C2 (stereo not shown) [Example 17, N-(2-Sulfamoylphenyl)sulfonylnorbornane-2-carboxamide] — 580-fold higher, 9800 nM
- Cc1cc(C#CC2CCCC2)ccc1C(=O)NS(=O)(=O)c1ccccc1S(N)(=O)=O [Example 67, 4-(Cyclopentylethynyl)-2-methyl-N-(2-sulfamoylphenylsulfonyl)benzamide] — 5-fold higher, 85 nM
- CC(C)(C)C#Cc1ncc(C(=O)NS(=O)(=O)c2ccccc2S(N)(=O)=O)cn1 [Example 96, 2-(3,3-Dimethylbut-1-ynyl)-N-(2-sulfamoylphenylsulfonyl)pyrimidine-5-carboxamide] — 100-fold higher, 1700 nM
- CC(C)(C)C#Cc1ccc(C(=O)NS(=O)(=O)c2ccccc2S(N)(=O)=O)c(C(F)(F)F)c1 [Example 151, 4-(3,3-Dimethylbut-1-ynyl)-N-(2-sulfamoylphenylsulfonyl)-2-(trifluoromethyl)-benzamide] — 22-fold higher, 380 nM
- NS(=O)(=O)c1ccccc1S(=O)(=O)NC(=O)c1ccc2oc(-c3ccccc3)cc2c1 [Example 25, 2-Phenyl-N-(2-sulfamoylphenyl)sulfonyl-benzofuran-5-carboxamide] — within 1.5-fold, 20 nM
- NS(=O)(=O)c1ccccc1S(=O)(=O)NC(=O)c1cccc(C#CC2CCCC2)c1 [Example 66, 3-(Cyclopentylethynyl)-N-(2-sulfamoylphenylsulfonyl)benzamide] — 13-fold higher, 220 nM
- Cc1cc(C(=O)NS(=O)(=O)c2ccccc2S(N)(=O)=O)ccc1Br [Example 12, 4-Bromo-3-methyl-N-(2-sulfamoylphenyl)sulfonyl-benzamide] — 10-fold higher, 170 nM
- NS(=O)(=O)c1ccccc1S(=O)(=O)NC(=O)c1ccc2oc(-c3ccccn3)cc2c1 [Example 122, 2-(Pyridin-2-yl)-N-(2-sulfamoylphenylsulfonyl)benzofuran-5-carboxamide] — 38-fold higher, 650 nM
- NS(=O)(=O)c1ccccc1S(=O)(=O)NC(=O)c1ccc(C#CC2CCCC2)cc1F [Example 85, 4-(Cyclopentylethynyl)-2-fluoro-N-(2-sulfamoylphenylsulfonyl)benzamide] — 2.9-fold higher, 49 nM
